US20260327233A1, “Heteroaryl Compounds as Ligand Directed Degraders of IRAK4” (Celgene Corporation, priority 2023, published 2026)
Where a name gives a salt, the structure may show the parent alone.

Tests used:
[1] = biological target: T1, IRAK4 (Homo sapiens, UniProt Q9NWZ3); experiment: ALE THP1 HTRF (IRAK4 HTRF in THP1 cell lysate, Cisbio HTRF kit); type: cell-based; parameters: THP1 Homogeneous Time Resolved Fluorescence (ALE THP1 HTRF) Procedure; endogenous in cells; host or cells: THP1; conditions: anti-IRAK4 d2 / anti-IRAK4 k antibodies
T1 sequence (Q9NWZ3 1-460): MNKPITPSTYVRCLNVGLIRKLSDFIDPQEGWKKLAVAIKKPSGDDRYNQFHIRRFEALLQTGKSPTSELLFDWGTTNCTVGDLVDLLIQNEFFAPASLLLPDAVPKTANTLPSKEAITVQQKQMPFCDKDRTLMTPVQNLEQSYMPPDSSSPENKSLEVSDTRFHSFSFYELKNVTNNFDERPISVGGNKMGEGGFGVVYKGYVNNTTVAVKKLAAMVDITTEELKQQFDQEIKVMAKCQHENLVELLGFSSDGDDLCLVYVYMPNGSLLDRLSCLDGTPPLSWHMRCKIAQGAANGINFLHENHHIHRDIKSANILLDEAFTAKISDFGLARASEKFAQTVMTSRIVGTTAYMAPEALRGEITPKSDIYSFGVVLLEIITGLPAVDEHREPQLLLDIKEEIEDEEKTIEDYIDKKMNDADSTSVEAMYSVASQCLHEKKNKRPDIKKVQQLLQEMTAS
Experimental: Cell culture media was prepared in a tissue culture hood in a sterile environment by adding 10% FBS and 1% Penicillin Streptomycin to 500 mL no phenol red RPMI 1640 media. The media was filtered through a Nalgene Bottle Top Filter and stored at 4° C.
For Homogenous Time Resolved Fluorescence (HTRF) assays, a Cisbio HTRF kit was used, which included: Lysis Buffer #1 4×, Blocking Reagent #3 100×, 20× Antibody 1 (Anti-IRAK4 d2), 20× Antibody 2 (Anti-IRAK4 k), and Detection Buffer.
4× Lysis Buffer was stored at 4° C. For use as 1× Lysis buffer, the 4× solution was diluted with de-ionized water (distilled water, Gibco Cat. #15230279) and 100× Blocking Reagent in a 1:3:0.04 volume ratio.
20× Antibody Solution aliquots were stored at −80° C. and the Detection Buffer was stored at 4° C. For use as a 1× Antibody Solution, the 20× Antibody Solution aliquot was diluted with Detection Buffer in a 1:19 volume ratio.
Cells were lysed at room temperature for 45 min with shaking. A BCA protein assay was performed and normalization was conducted to the desired total protein concentration with 1× lysis buffer. Next, 1× Antibody Solutions were prepared by adding 380 μL Detection Buffer to 20 μL 20× Antibody Solution aliquots and mixing well. 1× Antibody Solutions were combined 1:1 and briefly vortexed. For control wells, 20 μL 1× anti IRAK4-k Antibody Solution was saved. The 384-well plate (ProxiPlate-384 Plus, Perkin Elmer Cat. #6008289) was loaded by adding 4 μL of the mixed Antibody Solution to empty wells using a single channel repeater. Using a multi-channel repeater, 16 μL lysate was added per well, and any bubbles that were formed were popped with 20 μL pipette tips and Kimwipe edges. In column 10, triplicates of each control were prepared. In wells A10, B10, and C10, buffer control was prepared by adding 16 μL Lysis Buffer and 4 μL Detection Buffer. In wells D10, E10, and F10, cryptate control was prepared by adding 16 μL Lysis Buffer, 2 μL Detection Buffer, and 2 μL 1× anti-IRAK4-k Antibody Solution. In wells G10, H10, and 110, a negative control was prepared by adding 16 μL Lysis Buffer and 4 μL mixed Antibody Solution. The plate was sealed with a clear seal and covered with an aluminum lid. The plate was spun down at 800 g for 5 min and incubated in the dark at room temperature overnight. The next day, the plate was spun down at 800 g for 5 min. The samples were analyzed by a plate reader (Envision, PerkinElmer) using the Desnor 384 HTRF program.

[2] = biological target: T1, IRAK4; experiment: IRAK4 PhosphoSens Biochemical Assay (BIOCHEM); conditions: IRAK4 1 nM; ATP and Sox conjugated peptide substrate AQT0326; pH 7.5; room temperature; 240 minutes
Experimental: The PhosphoSens® biochemical assay was performed as described by the vendor (AssayQuant Technologies Inc. Marlborough, MA). A 1.25× stock solution of IRAK4 (PV4002, ThermoFisher Scientific, Waltham, MA) and a 5× stock solution of ATP and Sox conjugated peptide substrate, AQT0326 (CSKS-AQT0326B, AssayQuant Technologies), were prepared in 1× kinase reaction buffer consisting of 50 mM HEPES, pH 7.5, 0.01% Brij-35, 0.5 mM EGTA, 20 mM MgCl2 and 1 mM DTT. 10 μL of the ATP and substrate solution mix, for a final concentration of 200 µM ATP and […] peptide substrate, was added to a Corning 3574 384-well, white, non-binding surface microtiter plate containing 0.5 μL of serially diluted test compounds prepared in DMSO. The reactions were started with the addition of 40 μL of the enzyme solution, for a final IRAK4 concentration of 1 nM, and monitored every 71 seconds for 240 minutes at λEX 360/λEM 485 in a BioTek Synergy H4 plate reader (Agilent Technologies, Santa Clara, CA) at room temperature. The initial linear portions of the progress curves were fit according to a linear equation to yield the slopes and converted to % inhibition based on a value of 100% activity for the no inhibitor treated control. IC50 values of each compound were obtained by fitting the % inhibition-compound concentration curves using Dotmatics software (Dotmatics, Bishops Stortford, Hertfordshire, England),

EC50 [1] | ALE THP1 HTRF YMIN [1] | IC50 [2] | Compound
8 nM | 24% | < 0.5 nM | N[C@@H]1C[C@@H](F)CN(c2ccn3ncc(C(=O)Nc4cn([C@H]5CC[C@H](C(=O)N6CCN(c7ccc8c(c7)C(=O)N(C7CCC(=O)NC7=O)C8=O)CC6)CC5)nc4C(F)(F)F)c3n2)C1 (stereo partly drawn) [Compound P-13, 5-[(3R,5R)-3-Amino-5-fluoro-1-piperidyl]-N-[1-[4-[4-[2-(2,6-dioxo-3-piperidyl)-1,3-dioxo-isoindolin-5-yl]piperazine-1-carbonyl]cyclohexyl]-3-(trifluoromethyl)pyrazol-4-yl]pyrazolo[1,5-a]pyrimidine-3-carboxamide]
10000 nM | 73% | 1.6 nM | O=C1CCC(N2C(=O)c3ccc(N4CCN(C(=O)[C@H]5CC[C@H](n6cc(NC(=O)c7cnn8ccc(N9CCNCC9)nc78)c(C(F)(F)F)n6)CC5)CC4)cc3C2=O)C(=O)N1 (stereo partly drawn) [Compound P-14]
8 nM | 18% | < 0.5 nM | N[C@@H]1C[C@@H](F)CN(c2ccn3ncc(C(=O)Nc4cn([C@H]5CC[C@H](C(=O)N6CCN(c7ccc8c(c7)C(=O)N(C7CCC(=O)NC7=O)C8=O)CC6)CC5)nc4C(F)F)c3n2)C1 (stereo partly drawn) [Compound P-15]
13 nM | 41% | 0.5 nM | O=C1CCC(N2C(=O)c3ccc(N4CCN(C(=O)C5CCC(n6cc(NC(=O)c7cnn8ccc(N9CCNCC9)nc78)c(C(F)F)n6)CC5)CC4)cc3C2=O)C(=O)N1 (stereo not drawn) [Compound P-16]
> 10000 nM | >95% | 1.2 nM | N#Cc1nn([C@H]2CC[C@H](CN3CCC(c4ccc5c(c4)C(=O)N(C4CCC(=O)NC4=O)C5=O)CC3)CC2)cc1NC(=O)c1cnn2ccc(N3CCNCC3)nc12 (stereo partly drawn) [Compound P-17]
> 10000 nM | 69% | < 0.5 nM | N#Cc1nn(C2CCC(C(=O)N3CCN(c4ccc5c(c4)C(=O)N(C4CCC(=O)NC4=O)C5)CC3)CC2)cc1NC(=O)c1cnn2ccc(N3C[C@H](N)C[C@@H](F)C3)nc12 (stereo partly drawn) [Compound P-18]
7 nM | 14% | < 0.5 nM | N[C@@H]1C[C@@H](F)CN(c2ccn3ncc(C(=O)Nc4cn([C@H]5CC[C@H](C(=O)NC6CCN(c7ccc8c(c7)C(=O)N(C7CCC(=O)NC7=O)C8=O)CC6)CC5)nc4C(F)F)c3n2)C1 (stereo partly drawn) [Compound P-19]
11 nM | 22% | < 0.5 nM | N[C@@H]1C[C@@H](F)CN(c2ccn3ncc(C(=O)Nc4cn([C@H]5CC[C@H](C(=O)NC6CCN(c7ccc8c(c7)C(=O)N(C7CCC(=O)NC7=O)C8=O)CC6)CC5)nc4C(F)(F)F)c3n2)C1 (stereo partly drawn) [Compound P-20]
5 nM | 18% | < 0.5 nM | N[C@@H]1C[C@@H](F)CN(c2ccn3ncc(C(=O)Nc4cn([C@H]5CC[C@H](C(=O)N6CCN(c7ccc8c(c7)C(=O)N(C7CCC(=O)NC7=O)C8)CC6)CC5)nc4C(F)F)c3n2)C1 (stereo partly drawn) [Compound P-21]
3 nM | 27% | < 0.5 nM | N[C@@H]1C[C@@H](F)CN(c2ccn3ncc(C(=O)Nc4cn([C@H]5CC[C@H](C(=O)N6CCN(c7ccc8c(c7)C(=O)N(C7CCC(=O)NC7=O)C8)CC6)CC5)nc4C(F)(F)F)c3n2)C1 (stereo partly drawn) [Compound P-22]
8 nM | 20% | < 0.5 nM | N#Cc1nn([C@H]2CC[C@H](C(=O)NC3CCN(c4ccc5c(c4)C(=O)N(C4CCC(=O)NC4=O)C5=O)CC3)CC2)cc1NC(=O)c1cnn2ccc(N3C[C@H](N)C[C@@H](F)C3)nc12 (stereo partly drawn) [Compound P-23]
4 nM | 11% | < 0.5 nM | N[C@@H]1C[C@@H](F)CN(c2ccn3ncc(C(=O)Nc4cn([C@H]5CC[C@H](C(=O)NC6CCN(c7ccc8c(c7)CN(C7CCC(=O)NC7=O)C8=O)CC6)CC5)nc4C(F)F)c3n2)C1 (stereo partly drawn) [Compound P-24]
7 nM | 11% | < 0.5 nM | N[C@@H]1C[C@@H](F)CN(c2ccn3ncc(C(=O)Nc4cn([C@H]5CC[C@H](C(=O)NC6CCN(c7ccc8c(c7)C(=O)N(C7CCC(=O)NC7=O)C8)CC6)CC5)nc4C(F)F)c3n2)C1 (stereo partly drawn) [Compound P-25]
6 nM | 29% | < 0.5 nM | N[C@@H]1C[C@@H](F)CN(c2ccn3ncc(C(=O)Nc4cn([C@H]5CC[C@H](CN6CCN(c7ccc8c(c7)C(=O)N(C7CCC(=O)NC7=O)C8=O)CC6)CC5)nc4C(F)F)c3n2)C1 (stereo partly drawn) [Compound P-26]
26 nM | 24% | < 0.5 nM | Cc1nn([C@H]2CC[C@H](C(=O)NC3CCN(c4ccc5c(c4)C(=O)N(C4CCC(=O)NC4=O)C5=O)CC3)CC2)cc1NC(=O)c1cnn2ccc(N3C[C@H](N)C[C@@H](F)C3)nc12 (stereo partly drawn) [Compound P-27, N-[1-[4-[[1-[2-(2,6-dioxo-3-piperidyl)-1,3-dioxo-isoindolin-5-yl]-4-piperidyl]carbamoyl]cyclohexyl]-3-methyl-pyrazol-4-yl]-5-[(3R,5R)-3-amino-5-fluoro-1-piperidyl]pyrazolo[1,5-a]pyrimidine-3-carboxamide hydroxhloride]
> 10000 nM | >95% | > 1 nM | Cc1c(NC(=O)c2cnn3ccc(N4C[C@H](N)C[C@@H](F)C4)nc23)cnn1[C@H]1CC[C@H](C(=O)NC2CCN(c3ccc4c(c3)C(=O)N(C3CCC(=O)NC3=O)C4=O)CC2)CC1 (stereo partly drawn) [Compound P-28]
4 nM | 10% | < 0.5 nM | N[C@@H]1C[C@@H](F)CN(c2ccn3ncc(C(=O)Nc4cn([C@H]5CC[C@H](NC(=O)C6CCN(c7ccc8c(c7)C(=O)N(C7CCC(=O)NC7=O)C8=O)CC6)CC5)nc4C(F)F)c3n2)C1 (stereo partly drawn) [Compound P-29, 5-[(3R,5R)-3-Amino-5-fluoro-1-piperidyl]-N-[3-(difluoromethyl)-1-[4-[[1-[2-(2,6-dioxo-3-piperidyl)-1,3-dioxo-isoindolin-5-yl]piperidine-4-carbonyl]amino]cyclohexyl]pyrazol-4-yl]pyrazolo[1,5-a]pyrimidine-3-carboxamide hydrochloride]
